Measurements: US20100113466A1, “OXAZOLE-PYRIDAZINE-OXAZOLE ALPHA-HELIX MIMETIC” (The Scripps Research Institute, priority 2008, published 2010)

Molecular target: Bcl-xL (Homo sapiens, UniProt Q07817)
Assay: Bak/Bcl-XL competitive fluorescence polarization binding assay with fluorescein labeled Bid peptide
Details: displacement of fluorescein labeled Bid peptide from Bcl-xL; mP values only in drawings
Description: The affinity of each molecule within the library of potential Bak mimetics can be assayed with respect to binding to Bcl-xL receptor. The binding affinity can be determined, for example, by a competitive binding assay based on fluorescence polarization. See Wang, et al., Proc. Natl. Acad. Sci., 2000, 97:7124-7129.
Competitive fluorescence polarization-based assays require a dye-labeled peptide to determine if the small molecule has affinity for the target protein. These assays can be carried out with a fluorescein labeled Bid peptide. […] When a solution of fluorescein labeled Bid peptide is irradiated with polarized light, the peptide rotates quickly and the emitted light is depolarized. Upon complexation with the target Bcl-xL protein, the larger complex rotates slowly and the emitted light remains polarized.
When the fluorescein-labeled Bid/Bcl-xL complex is exposed to small molecules with binding affinity for Bcl-xL, the Bid peptide is displaced and the amount of depolarized light emitted increases. This polarization amount (mP) provides an estimate of the affinity for the small molecules for Bcl-xL
See Kutzki, et al., J. Am. Chem. Soc., 2002, 124:11838-11839. This compound acts as a positive control.
These compounds represent the strongest binders for Bcl-xL of the Bak mimetic library, with structure and mP values shown below.

Chain of Bcl-xL (Q07817 whole entry, species assumed): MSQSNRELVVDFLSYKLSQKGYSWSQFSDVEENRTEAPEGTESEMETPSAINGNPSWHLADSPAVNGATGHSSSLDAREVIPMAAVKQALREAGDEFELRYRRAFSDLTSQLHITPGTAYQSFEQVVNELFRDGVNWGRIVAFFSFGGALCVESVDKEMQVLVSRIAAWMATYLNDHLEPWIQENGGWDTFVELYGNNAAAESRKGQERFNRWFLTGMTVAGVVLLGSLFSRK

Compound | activity (mP value) in binding to Bcl-xL
CC(C)Cc1cc(-c2nc(C(C)C)co2)nnc1-c1nc(C(C)C)co1 [Compound 4.53, 2,2′-(4-isobutylpyridazine-3,6-diyl)bis(4-isopropyloxazole)] | particularly active
CC(C)Cc1cc(C(=O)N2CCC[C@@H](OCc3ccccc3)C2)nnc1-c1nc(C(C)C)co1 [Compound 4.73, (R)-(3-(Benzyloxy)piperidin-1-yl)(5-isobutyl-6-(4-isopropyloxazol-2-yl)pyridazin-3-yl)methanone] | particularly active
